Test results as given in patent US8404693B2, “Substituted piperidine compounds and methods of their use” (Adolor Corporation, priority 2003, dated 2013).

Tests used:
[1] = target: T1, cloned human μ opioid receptor (Homo sapiens, UniProt P35372); assay: [3H]diprenorphine receptor binding, μ opioid receptor; conditions: [3H]diprenorphine displacement; read-out: affinity (expressed as Ki value), μ opioid receptor
T1 construct: expressed in transfected cells
Experimental: (§1) The potencies of the compounds were determined by testing the ability of a range of concentrations of each compound to inhibit the binding of the non-selective opioid antagonist, [^3H]diprenorphine, to the cloned human μ, κ, and δ opioid receptors, expressed in separate cell lines. IC50 values were obtained by nonlinear analysis of the data using GraphPad Prism version 3.00 for Windows (GraphPad Software, San Diego). Ki values were obtained by Cheng-Prusoff corrections of IC50 values.
(§2) The receptor binding method (DeHaven and DeHaven-Hudkins, 1998) was a modification of the method of Raynor et al. (1994). […] The filters were rinsed 4 times with 1 mL of cold 50 mM Tris HCl, pH 7.8 and radioactivity remaining on the filters determined by scintillation spectroscopy. Nonspecific binding was determined by the minimum values of the titration curves and was confirmed by separate assay wells containing 10 μM naloxone. Ki values were determined by Cheng-Prusoff corrections of IC50 values derived from nonlinear regression fits of 12 point titration curves using GraphPad Prism® version 3.00 for Windows (GraphPad Software, San Diego, Calif.).
(§3) To determine the equilibrium dissociation constant for the inhibitors (Ki), radioligand bound (cpm) in the presence of various concentrations of test compounds was measured. […]

[2] = target: T2, cloned human δ opioid receptor (Homo sapiens, UniProt P41143); assay: [3H]diprenorphine receptor binding, δ opioid receptor; conditions: [3H]diprenorphine displacement; read-out: affinity (expressed as Ki value), δ opioid receptor
T2 construct: expressed in transfected cells
T2 sequence (P41143 whole entry): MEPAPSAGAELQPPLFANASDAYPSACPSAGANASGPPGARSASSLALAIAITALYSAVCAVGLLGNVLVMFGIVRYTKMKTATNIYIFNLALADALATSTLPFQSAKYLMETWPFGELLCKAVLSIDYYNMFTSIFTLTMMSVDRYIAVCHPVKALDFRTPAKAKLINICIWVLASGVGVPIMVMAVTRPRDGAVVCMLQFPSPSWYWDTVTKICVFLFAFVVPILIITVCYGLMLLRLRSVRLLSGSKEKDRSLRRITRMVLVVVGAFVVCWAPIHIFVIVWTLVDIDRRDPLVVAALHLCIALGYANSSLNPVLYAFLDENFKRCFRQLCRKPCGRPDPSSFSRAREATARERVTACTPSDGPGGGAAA
Experimental: as §1, §2, §3

[3] = target: T1, cloned human μ opioid receptor; assay: inhibition of agonist (loperamide)-stimulated [35S]GTPγS binding; format: biochemical; conditions: receptor not given; mu opioid receptor from context; read-out: in vitro antagonist activity (IC50)
Experimental: The potencies of the antagonists were assessed by their abilities to inhibit agonist-stimulated [^35S]GTPγS binding to membranes containing the cloned human μ, κ, or δ opioid receptors. The agonists used were loperamide for the μ opioid receptor, U50488H for the κ opioid receptor, and BW373U86 for the δ opioid receptor.
To determine the IC50 value, which was the concentration to give half-maximal inhibition of agonist-stimulated [^35S]GTPγS binding, the amount of [^35S]GTPγS bound in the presence of a fixed concentration of agonist and various concentrations of antagonist was measured. The fixed concentration of agonist was the EC80 for the agonist, which was the concentration to give 80% of the relative maximum stimulation of [^35S]GTPγS binding. The IC50 value was determined from a best nonlinear regression fit of the data to the following equation,
where Y is the amount of [^35S]GTPγS bound at each concentration of antagonist, Bottom is the calculated amount of [^35S]GTPγS bound in the presence of an infinite concentration of antagonist, Top is the calculated amount of [^35S]GTPγS bound in the absence of added antagonist, X is the logarithm of the concentration of antagonist, and Log IC50 is the logarithm of the concentration of antagonist where the amount of [^35S]GTPγS bound is halfway between Bottom and Top. […]

[4] = tested on: Mouse Gastrointestinal Transit (GIT); assay: Mouse Gastrointestinal Transit (GIT) Assay; format: in vivo; conditions: 10 mg/kg p.o., morphine 3 mg/kg s.c.
Experimental: Male Swiss-Webster mice (25-30 g) obtained from Ace Animals (Boyertown, Pa.) were used for all experiments. Mice were housed 4/cage in polycarbonate cages with food and water available ad libitum. Mice were on a 12 hours light:dark schedule with lights on at 6:30 a.m. All experiments were performed during the light cycle. Mice were fasted the night before the experiment, with water available ad libitum.
Mice were administered vehicle (10% DMSO:20% Cremophor EL:70% saline) or test compound (10 mg/kg) orally 2 or 6 hours before determination of GIT. Compounds were administered in a volume of 0.1 ml/10 g of body weight. Morphine (3 mg/kg) or vehicle (0.9% saline) was administered s.c. 35 min prior to determination of GIT. Ten minutes after the morphine treatment, mice were administered 0.2 ml of a charcoal meal orally. The charcoal meal consisted of a slurry of charcoal, flour, and water in the following ratio (1:2:8, w:w:v). Twenty-five minutes after receiving the charcoal meal, the mice were euthanized with CO2 and GIT determined.
GIT is expressed as the % GIT by the following formula:
[formula] For each compound a % Antagonism (% A) value was determined for the 2 and 6 hr antagonist pretreatment. Using the mean % GIT for each treatment group, % A was calculated using the following formula: […]

[5] = target: T3, cloned human κ opioid receptor (Homo sapiens, UniProt P41145); assay: [3H]diprenorphine receptor binding, κ opioid receptor; conditions: [3H]diprenorphine displacement; read-out: affinity (expressed as Ki value), κ opioid receptor
T3 construct: expressed in transfected cells
T3 sequence (P41145 whole entry): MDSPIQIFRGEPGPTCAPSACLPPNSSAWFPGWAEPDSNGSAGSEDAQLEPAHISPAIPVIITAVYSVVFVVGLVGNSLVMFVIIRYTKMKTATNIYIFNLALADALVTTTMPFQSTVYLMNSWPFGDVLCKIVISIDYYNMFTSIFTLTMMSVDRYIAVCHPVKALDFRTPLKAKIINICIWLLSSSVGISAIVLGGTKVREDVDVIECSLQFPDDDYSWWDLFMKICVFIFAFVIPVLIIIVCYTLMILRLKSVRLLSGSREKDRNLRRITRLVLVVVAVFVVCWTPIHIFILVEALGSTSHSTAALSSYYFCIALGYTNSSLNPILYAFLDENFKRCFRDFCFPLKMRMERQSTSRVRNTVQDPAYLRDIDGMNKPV
Experimental: as §1, §2, §3

T1 sequence (P35372 whole entry): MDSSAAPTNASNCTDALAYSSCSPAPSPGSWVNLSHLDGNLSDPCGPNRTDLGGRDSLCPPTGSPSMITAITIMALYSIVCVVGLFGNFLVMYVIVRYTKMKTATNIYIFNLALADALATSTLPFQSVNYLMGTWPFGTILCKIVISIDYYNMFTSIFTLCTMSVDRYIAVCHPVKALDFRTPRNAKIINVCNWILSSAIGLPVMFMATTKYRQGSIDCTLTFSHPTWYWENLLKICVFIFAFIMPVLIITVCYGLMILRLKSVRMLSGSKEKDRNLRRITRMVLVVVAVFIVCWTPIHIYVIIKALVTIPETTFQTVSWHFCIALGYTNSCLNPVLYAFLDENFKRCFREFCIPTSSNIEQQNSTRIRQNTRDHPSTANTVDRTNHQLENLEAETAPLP

For `C[C@H]1CN(CC(Cc2ccccc2)C(=O)NCC(=O)O)CC[C@@]1(C)c1cccc(C(=O)O)c1` (stereo in doubt) [Example 28, [[2(R)-[[4(R)-(3-carboxyphenyl)-3(R),4-dimethyl-1-piperidin-yl]methyl]-1-oxo-3-phenylpropyl]amino]acetic Acid], the Ki [1] was 19 nM, the Ki [2] was 1330 nM and the IC50 [3] was 3.4 nM. For the same compound, the “% antagonism” value ([4]; 2 h pretreatment) was 86% and the “% antagonism” value ([4]; 6 h pretreatment) was 71%.

`C[C@H]1CN(C[C@H](Cc2ccccc2)C(=O)NCC(=O)O)CC[C@@]1(C)c1cccc(C(N)=O)c1` [Example 58, [[2(R)-[[4(R)-(3-amidophenyl)-3(R),4-dimethyl-1-piperidinyl]methyl]-1-oxo-3-phenylpropyl]amino]acetic Acid] gave a Ki [1] of 2.6 nM, a Ki [2] of 85 nM and a Ki [5] of 1080 nM. For the same compound, the IC50 [3] was 3 nM, the “% antagonism” value ([4]; 2 h pretreatment) was 92% and the “% antagonism” value ([4]; 6 h pretreatment) was 61%.
